Measured values published in paper PMC7867265, “Phosphofructokinases A and B from Mycobacterium tuberculosis Display Different Catalytic Properties and Allosteric Regulation” (International Journal of Molecular Sciences, 2021).

How the values were obtained:
Pfk A [1] = target: T1, Pfk A (Mycobacterium tuberculosis, UniProt P9WID7)
T1 construct: gene pfkA

Pfk A [2] = target: T1, Pfk A; remark: listed apart in the source
Pfk B = target: T2, Pfk B (Mycobacterium tuberculosis, UniProt P9WID3)
T2 construct: gene pfkB
T2 sequence (P9WID3 whole entry): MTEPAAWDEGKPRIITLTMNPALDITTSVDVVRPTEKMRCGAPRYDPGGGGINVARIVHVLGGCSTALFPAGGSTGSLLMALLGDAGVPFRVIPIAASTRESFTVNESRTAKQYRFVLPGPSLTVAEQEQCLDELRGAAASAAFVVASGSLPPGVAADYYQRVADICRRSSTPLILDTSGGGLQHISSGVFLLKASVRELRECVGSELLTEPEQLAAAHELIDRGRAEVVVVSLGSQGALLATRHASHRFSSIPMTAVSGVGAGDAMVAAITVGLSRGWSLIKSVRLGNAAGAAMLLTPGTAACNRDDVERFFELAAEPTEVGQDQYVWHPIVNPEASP

Pfk A [3] = target: T1, Pfk A; remark: listed apart in the source
Pfk A [4] = target: T1, Pfk A; remark: listed apart in the source

T1 sequence (P9WID7 whole entry): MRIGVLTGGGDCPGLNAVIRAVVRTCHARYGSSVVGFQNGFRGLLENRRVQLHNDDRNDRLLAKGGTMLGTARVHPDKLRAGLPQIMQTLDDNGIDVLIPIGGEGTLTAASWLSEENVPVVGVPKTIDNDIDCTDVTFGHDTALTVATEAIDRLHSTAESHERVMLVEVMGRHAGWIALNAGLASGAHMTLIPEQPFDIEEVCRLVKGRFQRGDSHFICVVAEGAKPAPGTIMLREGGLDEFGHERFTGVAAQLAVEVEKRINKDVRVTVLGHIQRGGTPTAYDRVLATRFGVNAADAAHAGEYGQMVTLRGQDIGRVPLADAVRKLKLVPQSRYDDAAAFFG

Compound: Nc1ncnc2c1ncn2[C@@H]1O[C@H](COP(=O)(O)OP(=O)(O)OP(=O)(O)O)[C@@H](O)[C@H]1O [ATP]
- K1/2 (Km) (Pfk A [1]): 1.5 ± 0.3 mM

Compound: O=P(O)(O)OC[C@H]1OC(O)(CO)[C@@H](O)[C@@H]1O (some centres unmarked) [F6P]
- K1/2 (Km) (Pfk A [1]): 13.2 ± 2.0 mM

Compound: O=P(O)(O)OC[C@H]1OC(O)(COP(=O)(O)O)[C@@H](O)[C@@H]1O (some centres unmarked) [F16bP]
- feedback inhibition, modified coupled assay II (Pfk A [2]): Pfk A was efficiently inhibited by F16bP within the low micromolar concentration range

Compound: O=P(O)(O)OC[C@H]1O[C@@](CO)(OP(=O)(O)O)[C@@H](O)[C@@H]1O [F26bP]
- % activation at 100 μM (Pfk B): 20%
- % activation at 100 μM (Pfk A [3]): 10%

Compound: Nc1nc2c(ncn2[C@@H]2O[C@H](COP(=O)(O)OP(=O)(O)O)[C@@H](O)[C@H]2O)c(=O)[nH]1 [GDP]
- inhibition, coupled assay I (Pfk A [4]): Pfk A was found to be efficiently inhibited also by GDP within the millimolar concentration range

Compound: C=C(OP(=O)(O)O)C(=O)O [PEP]
- inhibition, coupled assay I (Pfk A [4]): efficient Pfk A inhibition can be achieved by a low micromolar concentration of this metabolite

Compound: O=C(O)CC(O)(CC(=O)O)C(=O)O [citrate]
- inhibition, coupled assay I (Pfk A [4]): Citrate also inhibited Pfk A, however, in millimolar concentrations
